From US10800778B2 (Entasis Therapeutics Limited, priority 2016, dated 2020)
Counter-ions that a name gives are not always drawn.

Tests used:
[1] = target: OXA-48 (Class D beta-lactamase) (Klebsiella pneumoniae, UniProt Q6XEC0); assay: Inhibition of beta-lactamase enzymes (nitrocefin hydrolysis), OXA-48; format: biochemical; settings: read-out: Class D OXA-48 60 min IC50, nitrocefin 100 μM
Protocol: (§1) A buffer consisting of 0.1 M sodium phosphate (pH 7.0), 10 mM NaHCO3, and 0.005% Triton X-100 was used for all enzymes. The chromogenic substrate nitrocefin (SynGene, Bangalore, India) was used at 100 μM. Enzyme activity was monitored by the 490 nm absorbance increase upon nitrocefin hydrolysis. Assays were performed in clear polystyrene 384-well plates (Greiner Bio-One, Monroe, N.C.). Absorbance was measured for 1 hour at 30-s intervals using a Spectramax absorbance plate reader (Molecular Devices, Sunnyvale, Calif.). Measurement of beta-lactamase inhibition by INHIBITOR employed serial 3-fold dilutions of the inhibitor in assay buffer, ranging from 100 μM to 62.7 pM. A background absorbance progress curve for a control lacking enzyme and inhibitor was subtracted from each progress curve.
(§2) The complete set of progress curves for one enzyme with all inhibitor concentrations was subjected to numerical integration with the program Kintek Global Kinetic Explorer (Kintek Corp, Snowshoe Pa.) to obtain a best-fit to the mechanism shown in Scheme 10.
(§3) where E, S, ES, P, I, and EI are the concentrations of the enzyme, nitrocefin, the enzyme-nitrocefin complex, the nitrocefin hydrolysis product, INHIBITOR, and the enzyme-INHIBITOR complex respectively. […] The values of k+2, k+3, and k−3 were fit. Concentration series offsets of the absorbance measurements were used to correct for slight absorbance baseline differences between wells. The parameter k+3 is equivalent to the second order rate constant kinact/Ki. In some cases, the inhibition was in rapid equilibrium on the experimental time scale, so that only the ratio k−3/k+3=Ki could be determined. Although k−3 represents reversal of inhibitor binding in Scheme 10, hydrolysis of the enzyme-inhibitor complex could not be excluded based on kinetic measurements.
(§4) Best-fit absorbance values from the above procedure at each time point for each compound concentration were exported to Excel.
(§5) where A is the best-fit absorbance without inhibitor and Ainhib is the best-fit absorbance in the presence of the inhibitor.
(§6) where [I] is the inhibitor concentration and n is the Hill coefficient. The Excel add-in XLfit (ID Business Solutions) was used for nonlinear regression.

[2] = target: TEM-1 (Class A beta-lactamase) (Escherichia coli, UniProt P62593); assay: Inhibition of beta-lactamase enzymes (nitrocefin hydrolysis), TEM-1; format: biochemical; settings: read-out: Class A TEM-1 60 min IC50, nitrocefin 100 μM
Protocol: as §1, §2, §3, §4, §5, §6

Chain of OXA-48 (Class D beta-lactamase) (Q6XEC0 whole entry, looked up, species assumed): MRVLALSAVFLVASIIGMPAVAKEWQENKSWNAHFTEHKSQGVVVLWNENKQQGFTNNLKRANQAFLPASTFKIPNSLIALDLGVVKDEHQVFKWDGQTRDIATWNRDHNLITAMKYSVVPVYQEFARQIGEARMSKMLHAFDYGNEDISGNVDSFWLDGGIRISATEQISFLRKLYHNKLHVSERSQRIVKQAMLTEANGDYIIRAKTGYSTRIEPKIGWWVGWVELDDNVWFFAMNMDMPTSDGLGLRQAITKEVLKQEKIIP
Chain of TEM-1 (Class A beta-lactamase) (P62593 whole entry, looked up, species assumed): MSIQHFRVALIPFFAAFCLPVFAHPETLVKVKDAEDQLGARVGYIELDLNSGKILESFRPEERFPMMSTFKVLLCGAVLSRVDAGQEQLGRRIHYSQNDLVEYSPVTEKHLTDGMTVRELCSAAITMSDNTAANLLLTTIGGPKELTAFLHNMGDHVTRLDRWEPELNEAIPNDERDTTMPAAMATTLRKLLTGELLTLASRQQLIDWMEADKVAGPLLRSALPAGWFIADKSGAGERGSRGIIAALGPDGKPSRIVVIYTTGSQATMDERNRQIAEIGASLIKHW

| SMILES | IC50 [1] [nM] | IC50 [2] [nM] |
| --- | --- | --- |
| CC1=C[C@@H]2CN(C(=O)N2O[C@@H](F)C(=O)O)[C@@H]1C(=O)NOC[C@@H]1CC(F)(F)CN1 [Example 63, (2S)-2-(((2S,5R)-2-((((S)-4,4-difluoropyrrolidin-2-yl)methoxy)carbamoyl)-3-methyl-7-oxo-1,6-diazabicyclo[3.2.1]oct-3-en-6-yl)oxy)-2-fluoroacetic acid TFA salt] | 230 | 110 |
| CC1=C[C@@H]2CN(C(=O)N2OC(F)C(=O)O)[C@@H]1c1nnc(C(N)=O)o1 (stereo partly drawn) [Example 55, 2-[[(2S,5R)-2-(5-carbamoyl-1,3,4-oxadiazol-2-yl)-3-methyl-7-oxo-1,6-diazabicyclo[3.2.1]oct-3-en-6-yl]oxy]-2-fluoro-acetic acid lithium salt] | 7.3 | 24 |
| CC1=C[C@@H]2CN(C(=O)N2O[C@@H](F)C(=O)O)[C@@H]1C(=O)NCO [Example 87, (2S)-2-fluoro-2-[[(2S,5R)-2-(hydroxymethylcarbamoyl)-3-methyl-7-oxo-1,6-diazabicyclo[3.2.1]oct-3-en-6-yl]oxy]acetic acid lithium salt] | 11 | 150 |
| CC1=C[C@@H]2CN(C(=O)N2O[C@@H](F)C(=O)O)[C@@H]1C(=O)NCC[C@@H]1CCC(=O)N1 [Example 73, (2S)-2-fluoro-2-[[(2S,5R)-3-methyl-7-oxo-2-[2-(5-oxopyrrolidin-2-yl)ethylcarbamoyl]-1,6-diazabicyclo[3.2.1]oct-3-en-6-yl]oxy]acetic acid lithium salt] | 530 | 730 |
| NC(=O)[C@@H]1CC[C@@H]2CN1C(=O)N2O[C@H](F)C(=O)O [Comparator 98, reference compound] | 2600 | 1.3 |
| CC(=O)NNC(=O)[C@@H]1C(C)=C[C@@H]2CN1C(=O)N2OC(F)C(=O)O (stereo partly drawn) [Example 27, 2-(((2S,5R)-2-(2-acetylhydrazinecarbonyl)-3-methyl-7-oxo-1,6-diazabicyclo[3.2.1]oct-3-en-6-yl)oxy)-2-fluoroacetic acid lithium salt] | 18 | 47 |
| CC(=O)NC[C@@H]1C(C)=C[C@@H]2CN1C(=O)N2O[C@@H](F)C(=O)O [Example 78, (2S)-2-[[(2S,5R)-2-(acetamidomethyl)-3-methyl-7-oxo-1,6-diazabicyclo[3.2.1]oct-3-en-6-yl]oxy]-2-fluoro-acetic acid lithium salt] | 690 | 3600 |
| CC1=C[C@@H]2CN(C(=O)N2O[C@@H](F)C(=O)O)[C@@H]1C(=O)NCCC(N)=O [Example 71, (2S)-2-[[(2S,5R)-2-[(3-amino-3-oxo-propyl)carbamoyl]-3-methyl-7-oxo-1,6-diazabicyclo[3.2.1]oct-3-en-6-yl]oxy]-2-fluoro-acetic acid lithium salt] | 75 | 110 |
| CC1=C[C@@H]2CN(C(=O)N2OC(F)C(=O)O)[C@@H]1C(N)=O (mixture of isomers) [Example 5, {[(2S,5R)-2-carbamoyl-3-methyl-7-oxo-1,6-diazabicyclo[3.2.1]oct-3-en-6-yl]oxy}(fluoro)acetic acid lithium salt (mixture of diastereomers)] | 17 | 4.4 |
| O=C(O)C(F)ON1C(=O)N2C[C@H]1CC[C@H]2C(=O)NC1CCNCC1 (some centres unmarked) [Comparator 99, reference compound] | 82000 | 30 |
| NC(=O)[C@@H]1C(C2CC2)=C[C@@H]2CN1C(=O)N2O[C@H](F)C(=O)O [Example 41, (2R)-2-(((2S,5R)-2-carbamoyl-3-cyclopropyl-7-oxo-1,6-diazabicyclo[3.2.1]oct-3-en-6-yl)oxy)-2-fluoroacetic acid lithium salt] | 6.4 | 3.5 |
| CC1=C[C@@H]2CN(C(=O)N2O[C@@H](F)C(=O)O)[C@@H]1C(=O)NCC#N [Example 82, (2S)-2-fluoro-2-[[(2S,5R)-2-(cyanomethylcarbamoyl)-3-methyl-7-oxo-1,6-diazabicyclo[3.2.1]oct-3-en-6-yl]oxy]acetic acid lithium salt] | 28 | 85 |
| CC1=C[C@@H]2CN(C(=O)N2OC(F)(F)C(=O)O)[C@@H]1C(N)=O [Example 8, {[(2S,5R)-2-carbamoyl-3-methyl-7-oxo-1,6-diazabicyclo[3.2.1]oct-3-en-6-yl]oxy}(difluoro)acetic acid lithium salt] | 14 | 1.5 |
| CC1=C[C@@H]2CN(C(=O)N2O[C@@H](F)C(=O)O)[C@@H]1C(=O)NC1COC1 [Example 66, (2S)-2-fluoro-2-[[(2S,5R)-3-methyl-2-(oxetan-3-ylcarbamoyl)-7-oxo-1,6-diazabicyclo[3.2.1]oct-3-en-6-yl]oxy]acetic acid lithium salt] | 12 | 660 |
| CC1=C[C@@H]2CN(C(=O)N2O[C@@H](F)C(=O)O)[C@@H]1CN [Example 77, (2S)-2-[[(2S,5R)-2-(aminomethyl)-3-methyl-7-oxo-1,6-diazabicyclo[3.2.1]oct-3-en-6-yl]oxy]-2-fluoro-acetic acid] | > 100000 | > 100000 |
| CC1=C[C@@H]2CN(C(=O)N2OCC(=O)O)[C@@H]1C(N)=O [Example 10, {[(2S,5R)-2-carbamoyl-3-methyl-7-oxo-1,6-diazabicyclo[3.2.1]oct-3-en-6-yl]oxy}acetic acid lithium salt] | 51 | 430 |
| CC1=C[C@@H]2CN(C(=O)N2O[C@@H](F)C(=O)O)[C@@H]1C(=O)NCc1cnccn1 [Example 69, (2S)-2-fluoro-2-[[(2S,5R)-3-methyl-7-oxo-2-(pyrazin-2-ylmethyl-carbamoyl)-1,6-diazabicyclo[3.2.1]oct-3-en-6-yl]oxy]acetic acid lithium salt] | 110 | 180 |
| CC1=C[C@@H]2CN(C(=O)N2O[C@@H](F)C(=O)O)[C@@H]1C(=O)NCCS(N)(=O)=O [Example 57, (2S)-2-fluoro-2-[[(2S,5R)-3-methyl-7-oxo-2-(2-sulfamoylethylcarbamoyl)-1,6-diazabicyclo[3.2.1]oct-3-en-6-yl]oxy]acetic acid lithium salt] | 410 | 57 |
| CC(=O)NCNC(=O)[C@@H]1C(C)=C[C@@H]2CN1C(=O)N2O[C@@H](F)C(=O)O [Example 88, (2S)-2-fluoro-2-[[(2S,5R)-2-(acetamidomethylcarbamoyl)-3-methyl-7-oxo-1,6-diazabicyclo[3.2.1]oct-3-en-6-yl]oxy]acetic acid lithium salt] | 45 | 54 |
| CC1=C[C@@H]2CN(C(=O)N2O[C@@H](F)C(=O)O)[C@@H]1CNC(=O)OC(C)(C)C [Example 76, (2S)-2-[[(2S,5R)-2-[tert-butoxycarbonylamino)methyl]-3-methyl-7-oxo-1,6-diazabicyclo[3.2.1]oct-3-en-6-yl]oxy]-2-fluoro-acetic acid lithium salt] | 220 | 940 |
| CC1=C[C@@H]2CN(C(=O)N2O[C@@H](F)C(=O)O)[C@@H]1C(=O)NCCNS(C)(=O)=O [Example 67, (2S)-2-fluoro-2-[[(2S,5R)-2-[2-(methanesulfonamido)ethylcarbamoyl]-3-methyl-7-oxo-1,6-diazabicyclo[3.2.1]oct-3-en-6-yl]oxy]acetic acid lithium salt] | 340 | 64 |
| CC1=C[C@@H]2CN(C(=O)N2OC(C)(F)C(=O)O)[C@@H]1C(N)=O (mixture of isomers) [Example 11, 2-{[(2S,5R)-2-carbamoyl-3-methyl-7-oxo-1,6-diazabicyclo[3.2.1]oct-3-en-6-yl]oxy}-2-fluoropropanoic acid lithium salt (mixture of diastereomers)] | 22000 | 230 |
| CC1=C[C@@H]2CN(C(=O)N2O[C@@H](F)C(=O)O)[C@@H]1C(=O)NOCC1CC1 [Example 70, (2S)-2-[[(2S,5R)-2-(cyclopropylmethoxycarbamoyl)-3-methyl-7-oxo-1,6-diazabicyclo[3.2.1]oct-3-en-6-yl]oxy]-2-fluoro-acetic acid lithium salt] | 87 | 26 |
| CC1=C[C@@H]2CN(C(=O)N2O[C@@H](F)C(=O)O)[C@@H]1C(=O)NOC[C@@H]1CCC(=O)N1 [Example 72, (2S)-2-fluoro-2-[[(2S,5R)-3-methyl-7-oxo-2-[(5-oxopyrrolidin-2-yl)methoxycarbamoyl]-1,6-diazabicyclo[3.2.1]oct-3-en-6-yl]oxy]acetic acid lithium salt] | 110 | 77 |
| CC1=C[C@@H]2CN(C(=O)N2OC(F)C(=O)O)[C@@H]1C(=O)NCc1cnccn1 (stereo partly drawn) [Example 30, 2-fluoro-2-(((2S,5R)-3-methyl-7-oxo-2-((pyrazin-2-ylmethyl)carbamoyl)-1,6-diazabicyclo[3.2.1]oct-3-en-6-yl)oxy)acetic acid lithium salt] | 140 | 81 |
